Test results as given in patent US20210401827A1 (priority 2018, published 2021).
Read-outs that look alike come from different tables or passages of the source.

Assays:
[1] = human, in vivo
[2] = in vivo; cited from earlier work
[3] = human, in vivo; remark: listed apart in the source

Structure (SMILES)	Lambda z [1]	AUCextrap ([1]; im, 1.5 mg)	Cmax/D ([1]; im, 1.5 mg)	adverse events with an incidence less than 1% [2]	common adverse reactions with an incidence greater than 1% [2]	λz [3]	AUCextrap ([3]; im, 2 mg)	Cmax/Dose ([3]; im, 2 mg)
C=C1CC[C@@]2(O)[C@H]3Cc4ccc(O)c5c4[C@@]2(CCN3CC2CC2)[C@H]1O5 [Nalmefene, 17-cyclopropylmethyl-4,5α-epoxy-6-methylenemorphinan-3,14-diol]	0.094 h⁻¹	22.6%	1.12 ng/mL/mg	bradycardia, arrhythmia, diarrhea, dry mouth, somnolence, depression, agitation, nervousness, tremor, confusion, withdrawal syndrome, myoclonus, pharyngitis, pruritus, and urinary retention	nausea, vomiting, tachycardia, hypertension, postoperative pain, fever, dizziness, headache, chills, hypotension, and vasodilation			
O=C1CC[C@@]2(O)[C@H]3Cc4ccc(O)c5c4[C@@]2(CCN3CC2CC2)[C@H]1O5 [Naltrexone, 17-(cyclopropylmethyl)-4,5α-epoxy-3,14-dihydroxymorphinan-6-one]						0.361 h⁻¹	1.01%	2.27 ng/mL/mg
